Data set [1] is described as follows: Cmax in mouse at 3 mg/kg, po measured after 2 hrs by LC-MS/MS analysis. In kind it is ADME, organism-based. Also noted: dose 3 mg/kg, time 2 hrs, route po. The note with it: in vivo.
A short description of data set [2]: Drug concentration in athymic Nu/Nu mouse tumor xenografted with human HCT-116 cells transfected with luciferase at 20 mg/kg, ip administered daily for 10 days by HPLC analysis. In kind it is ADME, organism-based, Neoplasm. The following applies: time 10 day, read-out: Drug uptake.
Data set [3] can be described thus: Drug concentration in athymic Nu/Nu mouse plasma xenografted with human HCT-116 cells transfected with luciferase at 20 mg/kg, ip administered daily for 10 days by HPLC analysis. It is filed as ADME, organism-based. The following applies: time 10 day, read-out: Drug uptake.
The nature of data set [4]: Acute toxicity in ip dosed Syrian golden hamster assessed as lethal dose. In kind it is organism-based, Mesocricetus auratus. The note with it: in vivo.
The nature of data set [5]: Oral bioavailability in Sprague-Dawley rat at 10 mg/kg measured upto 72 hrs. In kind it is ADME, organism-based. The note with it: in vivo.
The nature of data set [6]: Acute toxicity in ip dosed Swiss albino mouse assessed as lethal dose. It is filed as organism-based. The note with it: in vivo.
Data set [7] can be described thus: Drug concentration in athymic Nu/Nu mouse plasma xenografted with human HCT-116 cells transfected with luciferase at 5 mg/kg, ip administered daily for 10 days by HPLC analysis. It is filed as ADME, organism-based. The following applies: time 10 day, read-out: Drug uptake.
Data set [8] in a line: Acute toxicity in ip dosed rat assessed as lethal dose. The note with it: in vivo. It is filed as organism-based.
Data set [9] can be described thus: Oral bioavailability in Sprague-Dawley rat at 30 mg/kg measured upto 72 hrs. In kind it is ADME, organism-based. The note with it: in vivo.
Data set [10] is described as follows: Drug concentration in athymic Nu/Nu mouse tumor xenografted with human HCT-116 cells transfected with luciferase at 5 mg/kg, ip administered daily for 10 days by HPLC analysis. It is filed as ADME, organism-based, Neoplasm. The note with it: time 10 day, read-out: Drug uptake.
Data set [11] in a line: Acute toxicity in iv dosed Swiss albino mouse assessed as lethal dose. The note with it: in vivo. It is filed as organism-based.
Data set [12] is described as follows: Oral bioavailability in Sprague-Dawley rat at 50 mg/kg measured upto 72 hrs. It is filed as ADME, organism-based. The note with it: in vivo.

Molecules are shown by their SMILES.

In the case of `COC(=O)C[C@H]1[C@]2(C)C3=C(C)[C@H](c4ccoc4)C[C@H]3O[C@@H]2[C@@H]2OC(=O)[C@]3(C)C=CC(=O)[C@@]1(C)[C@@H]23` [NIMBOLIDE], the Cmax in data set [1] is 780 nM. The concentration at 240 h was 868 ng/g in [2], 409 ng/mL in data set [3], 222 ng/mL in data set [7] and 345 ng/g in data set [10]. Besides, the 50% lethal dose (LD50) amounted to 500 mg/kg in [4], 225 mg/kg in data set [6], 600 mg/kg in data set [8] and 24 mg/kg in data set [11]. In addition, the bioavailability is 2.72% in [5], 1.76% in data set [9] and 3.06% in data set [12].

The values are drawn from ChEMBL document CHEMBL5233272, “Nimbolide, a Neem Limonoid, Is a Promising Candidate for the Anticancer Drug Arsenal” (J Med Chem, 2021).
